This is an account of results in patent US10017554B2, “Neuropeptide Y-derived peptides” (University of Copenhagen, priority 2013, dated 2018).

This assay has as its system hippocampal neurons. The assay is described as follows: Neurite outgrowth in cultures of rat hippocampal neurons, embryonic day 19, 24 h. In kind it is cell-based. Particulars: for Neuritogenic effect 3 μM NPY fragment (% of control): 3 μM peptide; for neurite outgrowth / neuritogenic effect (in words): E19 prenatal rat hippocampal cultures. The method, then: When pharmacological inhibitors or antagonist are applied these are added to cultures 10 min prior to peptide addition. When soluble immunoglobulin modules are used, these are preincubated with peptide solution for 10 min before addition of the mix to the cultures. To knock down NCAM expression, the neurons were transfected with a p-GFP—V-RS vector that encodes short-hairpin RNA targeting NCAM (OriGene, Rockville, Md., USA) using a nucleofector device and a Rat Neuron Nucleofector kit (Amaxa, Gaithersburg, Md., USA). NCAM knock-out mice (C57BI/6JZtm) were a kind gift from prof. Herbert Hildebrandt (Hannover Medical School) and were created as previous described (Cremer et al., 1994). The neurons were fixed, immunostained, and micrographs were recorded and evaluated as previously described (Rønn et al., 2000; Nielsen et al., 2009). Cf. FIGS. 3-9
Neurite outgrowth in cultures of hippocampal neurons from wistar rats, embryonic stage day 19, incubated for 24 hours (37° C., 5% CO2) in supplemented Neurobasal medium with NPY fragments added; effect compared to un-stimulated controls (set to 100%). Values are mean normalized to un-stimulated controls±standard error of mean (SEM). *P<0.05, […], […], Student's t-test versus un-stimulated control.

[1] abbreviates: un-stimulated controls set to 100%, mean ± SEM.

Consider “PAEDMARYYSALRHYINLITRQR (listed as Homo sapiens) [NPY13-35]”, for which the “Neuritogenic effect 1 μM NPY fragment (% of control)” value (1 μM peptide, un-stimulated controls set to 100%, mean ± SEM) is on record as 164.2 ± 7.2 % of control. Moreover, under setting [1], the “Neuritogenic effect 3 μM NPY fragment (% of control)” value was 275.8 ± 31.2 % of control.

Turning to “RQRTILNIYHRLASYYRAMDEAPADEGPNDPKS (listed as Homo sapiens) [NPY3-35 reversed sequence, reference compound]”, the “neurite outgrowth / neuritogenic effect (in words)” value is “did not induce the same neuritogenic effects”.

With “YSALRHYINLITRQR (listed as Homo sapiens) [NPY21-35]”, the “neurite outgrowth / neuritogenic effect (in words)” value is reported as “induce neurite outgrowth”. Also, the “Neuritogenic effect 3 μM NPY fragment (% of control)” value under setting [1] is on record as 266.4 ± 26.6 % of control.

As to “SALRHYINLITRQR (listed as Homo sapiens) [NPY22-35]”, the “neurite outgrowth / neuritogenic effect (in words)” value is reported as “does not”.

As to “ALRHYINLITRQRA (listed as Homo sapiens) [NPY23-36 ala36]”, under setting [1], the “Neuritogenic effect 3 μM NPY fragment (% of control)” value was 91.7 (n = 1) % of control.
